Reference: patent US8853490B2 (priority 2010, dated 2014)
Read-outs that look alike come from different tables or passages of the source.

Assays:
[1] = test system: Diplodia maydis (DMA; isolate Warren-IN-96); format: cell-based
[2] = test system: Colletotrichum graminicola (CGR; isolate Carroll-IA-99); format: cell-based

For “LB-9827-3B-25F2: LBNL variant generated through gene shuffling of the LB-9827-1 mature peptide coding sequence (LSKYGGECSREHNTCTYLKGGKNQVVACGSAANKKCKRDRHHCEYDDYHKTVDCQTPV; Synthetic peptide LB-9827-3B-25F2)”, the “In vitro antifungal activity (IC50) against D. maydis (DMA)” value (“In vitro antifungal activity … (DMA)” below) ([1]; high salt conditions) was 7.5 ppm and the “In vitro antifungal activity (IC50) against C. graminicola (CGR)” value (from here on “In vitro antifungal activity (IC50) … (CGR)”) ([2]; high salt conditions) was 1.25 ppm.

“LB-5220 (r2 6F2): LBNL variant generated through gene shuffling of the LB-5220 mature peptide coding sequence (LKYTGTCRRANNQCKYKGQNNRDTFVKCPTFANKKCTRDGEKCSFDSYSRAVTCD; LB-5220 (r2-6F2))” was tested, and the “In vitro antifungal activity … (DMA)” value ([1]; high salt conditions) was 6 ppm, the “In vitro antifungal activity … (DMA)” value ([1]; low salt conditions) was 0.1 ppm and the “In vitro antifungal activity (IC50) … (CGR)” value ([2]; high salt conditions) was 12 ppm. For the same substance, the “In vitro antifungal activity (IC50) … (CGR)” value ([2]; low salt conditions) was 0.4 ppm.

With “LB-9827-3B-21E10: LBNL variant generated through gene shuffling of the LB-9827-1 mature peptide coding sequence (LSKYGGECSRAHNTCTYRKGGKNQVVNCPSAANKKCKSDRHHCEYDEYHKRVDCQTPV; Synthetic peptide LB-9827-3B-21E10)” the “In vitro antifungal activity … (DMA)” value ([1]; high salt conditions) was 30 ppm and the “In vitro antifungal activity (IC50) … (CGR)” value ([2]; high salt conditions) was 1.25 ppm.

“LB-9827-3B-25G5: LBNL variant generated through gene shuffling of the LB-9827-1 mature peptide coding sequence (LSKYGGECSRAHNTCTYRKGGKNQVVKCGTAANKKCKSDRHHCEYDDYHKRVDCQTPV; Synthetic peptide LB-9827-3B-25G5)” was tested, and the “In vitro antifungal activity … (DMA)” value ([1]; high salt conditions) was 0.47 ppm and the “In vitro antifungal activity (IC50) … (CGR)” value ([2]; high salt conditions) was 1.25 ppm.

In the case of “LB-5220 (r2 5G7): LBNL variant generated through gene shuffling of the LB-5220 mature peptide coding sequence (LKYTGTCRRANNQCKYKGQNNRDTFVKCPTFANKKCTRDGAKCSFDSYSRAVTCD; Synthetic peptide LB-5220 (r2-5G7))”, the “In vitro antifungal activity … (DMA)” value ([1]; high salt conditions) is reported as 12 ppm, the “In vitro antifungal activity … (DMA)” value ([1]; low salt conditions) is reported as 0.1 ppm and the “In vitro antifungal activity (IC50) … (CGR)” value ([2]; high salt conditions) is reported as 6 ppm.

With “LB-9827-3A-11E4: LBNL variant generated through gene shuffling of the LB-9827-1 mature peptide coding sequence (LSKYGGECSRKHNTCTYKKGGKNQIVNCPTAANKRCKTDRHHCEYDEYHRRVDCQTPV; LB-9827-3A-11E4)” the “In vitro antifungal activity … (DMA)” value ([1]; high salt conditions) was 0.94 ppm and the “In vitro antifungal activity (IC50) … (CGR)” value ([2]; high salt conditions) was 1.25 ppm.

For “LB-5220 (ps 1B4): LBNL variant generated through gene shuffling of the LB-5220 mature peptide coding sequence (LKYTGTCTRKNNQCKYRGQNNRDTFVKCPTFANKRCTRDGAPCSFDSYSRAVTCD; Synthetic peptide LB-5220 (ps-1B4))”, the “In vitro antifungal activity … (DMA)” value ([1]; high salt conditions) was 12 ppm and the “In vitro antifungal activity … (DMA)” value ([1]; low salt conditions) was 0.1 ppm.

In the case of “LB-9827-3B-26G11: LBNL variant generated through gene shuffling of the LB-9827-1 mature peptide coding sequence (LSKYGGECSKEHNTCKYLKGGKNQVVACPKAANKKCKTDRHHCEYDEYHKTVDCQTPV; Synthetic peptide LB-9827-3B-26G11)”, the “In vitro antifungal activity (IC50) … (CGR)” value ([2]; high salt conditions) is reported as 0.63 ppm.
